The subject of assay [1] is FLAG-tagged wild-type HMTK1. In words: Pulldown of FLAG-tagged wild-type HMTK1 from SYF cell lysates with immobilized peptides. It counts as binding, Monosiga brevicollis. Conditions: immobilized peptide; anti-FLAG Western; Fig. 3C. The method, then:
For expression in insect cells, HMTK1 DNA (encoding residues 341–761) was cloned into the EcoRI site of pFastbac-Hta (Invitrogen). FLAG-tagged HMTK1 was expressed in mammalian cells by subcloning into the BglII and BamHI sites of p3XFLAG-CMV (Sigma). The ΔPTB version of this construct was prepared by PCR amplification and subsequent recloning into the BamHI and EcoRI sites of p3XFLAG-CMV. Site-directed mutagenesis of FLAG-HMTK1 was carried out using the QuikChange kit (Stratagene). To express the isolated third PTB domain (residues 341–474) in bacterial cells, this PCR fragment was cloned into the EcoRI site of plasmid pGEX-4T-1 (GE Healthcare). All constructs were confirmed by DNA sequencing.
The PTB ligand-containing peptide, Phe-containing PTB control, and pYEEI peptide (EPQpYEEIG) were linked to Affi-Gel 15 resin (Bio-Rad) following the manufacturer's protocols. Purified HMTK1 or the isolated PTB domain were incubated for 1 hour at 4°C with the immobilized peptides. […]
Figure 3 Binding reactions with pYEEI-containing peptide. […] Bound proteins were eluted with SDS-PAGE sample buffer and analyzed by gel electrophoresis with Coomassie blue staining. […] After washing, bound proteins were eluted with SDS-PAGE sample buffer and analyzed by Western blotting with anti-GST antibody. […] After washing, bound proteins were analyzed by anti-FLAG Western blotting. […]

Assay [2] deals with HMTK1. In words: Binding of purified HMTK1 to immobilized PTB ligand peptides. Conditions: 6.6 µg HMTK1; peptide on Affi-Gel resin; 1 hour at 4°C; anti-His6 Western; Fig. 5A. Also noted: species or system Monosiga brevicollis. The method, then:
The PTB ligand-containing peptide, Phe-containing PTB control, and pYEEI peptide (EPQpYEEIG) were linked to Affi-Gel 15 resin (Bio-Rad) following the manufacturer's protocols. Purified HMTK1 or the isolated PTB domain were incubated for 1 hour at 4°C with the immobilized peptides. After binding, the beads were washed 4 times with 1 ml of binding buffer (50 mM Tris-HCl pH 7.5, 5 mM EDTA, 100 mM NaCl, 0.1% Triton X-100, 1 mM DTT, 0.5 mM Na3VO4). Bound proteins were eluted with SDS-PAGE loading buffer, separated by 10% SDS-PAGE, and visualized either by Coomassie blue staining or by Western blotting.
Figure 5 Substrate targeting by PTB ligand. (A) Purified HMTK1 (6.6 µg) was incubated with PTB ligand-containing substrate ([…]pYATLG), PTB control substrate ([…]), pYEEI peptide, or control resin in final volumes of 60 µl. After washing, bound proteins were eluted with SDS-PAGE sample buffer and analyzed by Western blotting with anti-His6-tag antibody. (B) The kinase activity of HMTK1 (300 nM) toward the PTB ligand-containing substrate or PTB control substrate (shown schematically) was determined using the phosphocellulose paper assay. The reaction contained 20 mM Tris-HCl (pH 7.4), 10 mM MgCl2, 0.2 mM ATP, 30 µM peptide, and [γ-^32P]-ATP. […] Incorporation of ^32P into the peptides was determined by scintillation counting.

Assay [3] has as its system HMTK1. The assay can be described thus: Steady-state kinetics, continuous spectrophotometric assay. It counts as biochemical, Monosiga brevicollis. Conditions: HMTK1 0.3–0.5 µM; peptide 0–700 µM; 100 mM Tris pH 7.4, 10 mM MgCl2, 2 mM ATP; 30°C; nonlinear fitting. The method, then:
Kinase assays were performed by two methods. Initial activity measurements were performed by the phosphocellulose paper binding assay. Reaction mixtures contained 20 mM Tris-HCl (pH 7.4), 10 mM MgCl2, 0.2 mM ATP, [γ-^32P]-ATP (30–50 cpm/pmol), and varying amounts of HMTK1 and peptide substrates. All peptide substrates were purified by high pressure liquid chromatography and characterized by mass spectrometry prior to use. The following substrates were used: c-Src peptide, […]; MbSTAT peptide, […]; RTKB2 peptide 1, […]; RTKB2 peptide 2, […]; SH2 binding substrates (varying linker lengths), […]pYEEIG, […]pYEEIG, and […]pYEEIG; SH2 control substrate, […]. Initial rate kinetic measurements on the PTB ligand-containing substrate ([…]pYATLG) and on the Phe-containing PTB control ([…]) were carried out using a continuous spectrophotometric assay. Reactions were performed at 30°C in a final volume of 50 µl. The reactions contained 100 mM Tris pH 7.4, 10 mM MgCl2, 2 mM ATP, 1.5 mM phosphoenolpyruvate, 90 units/ml of pyruvate kinase, 109 units/ml of lactate dehydrogenase, and 1.2 mg/ml of NADH. For determination of Km values, the enzyme concentrations were 0.3–0.5 µM and the peptide concentrations ranged from 0–700 µM. Kinetic constants were determined by nonlinear fitting to the [substrate] vs. velocity curves using GraphPad Prism 4.

Assay [4] relates to HMTK1. In words: Phosphorylation of SH2-binding substrates with varying spacer lengths by HMTK1 (phosphocellulose paper assay). In kind it is biochemical, Monosiga brevicollis. Conditions: 70 µM peptides; spacer of 11 residues; 6 minutes at 30°C; Fig. 2B. The method, then:
(§1) HMTK1 was expressed in Spodoptera frugiperda (Sf9) insect cells using the Bac-to-Bac system (Invitrogen). Sf9 cells (800 ml) were infected with HMTK1 baculovirus and harvested after three days. Cells were lysed in a French pressure cell, and His-tagged HMTK1 was purified using nickel-nitrilotriacetic acid resin (Qiagen), as described previously. Peak fractions were pooled and concentrated in an Amicon Ultrafiltration device (molecular weight cutoff: 30,000 daltons). The purified protein was stored in 40% glycerol at −20°C. The isolated PTB domain of HMTK1 was produced as a fusion with glutathione S-transferase (GST). E. coli cells (1 liter) expressing the GST fusion protein were lysed in a French pressure cell, and the GST-PTB protein was purified by chromatography on a glutathione-agarose column (Molecular Probes).
Kinase assays were performed by two methods. Initial activity measurements were performed by the phosphocellulose paper binding assay. […] Kinetic constants were determined by nonlinear fitting to the [substrate] vs. velocity curves using GraphPad Prism 4.
Figure 2 Additional HMTK1 peptide phosphorylation assays. Reactions proceeded for 6 minutes at 30°C, and enzyme activity was measured using the phosphocellulose paper assay. […]

The test system of assay [5] is HMTK1. The assay can be described thus: Phosphorylation of peptide substrates by purified HMTK1 (phosphocellulose paper assay). In kind it is biochemical, Monosiga brevicollis. Conditions: 6 minutes at 30°C; for HMTK1 activity toward peptide (comparison of c-Src and Monosiga-derived peptides): 750 µM peptide, 400 nM HMTK1, pH 7.4, phosphocellulose paper assay, Fig. 2A. The method, then:
as §1
Kinase assays were performed by two methods. Initial activity measurements were performed by the phosphocellulose paper binding assay. Reaction mixtures contained 20 mM Tris-HCl (pH 7.4), 10 mM MgCl2, 0.2 mM ATP, [γ-^32P]-ATP (30–50 cpm/pmol), and varying amounts of HMTK1 and peptide substrates. All peptide substrates were purified by high pressure liquid chromatography and characterized by mass spectrometry prior to use. […] Initial rate kinetic measurements on the PTB ligand-containing substrate ([…]pYATLG) and on the Phe-containing PTB control ([…]) were carried out using a continuous spectrophotometric assay. Reactions were performed at 30°C in a final volume of 50 µl. The reactions contained 100 mM Tris pH 7.4, 10 mM MgCl2, 2 mM ATP, 1.5 mM phosphoenolpyruvate, 90 units/ml of pyruvate kinase, 109 units/ml of lactate dehydrogenase, and 1.2 mg/ml of NADH. For determination of Km values, the enzyme concentrations were 0.3–0.5 µM and the peptide concentrations ranged from 0–700 µM. Kinetic constants were determined by nonlinear fitting to the [substrate] vs. velocity curves using GraphPad Prism 4.
Figure 1 Monosiga brevicollis HMTK1 kinase. (A) Domain arrangement of HMTK1. (B) Amino acid sequence of the PTB-kinase HMTK1 construct used in this study. The HMD motif in the catalytic loop is underlined. (C) Tyrosine kinase activity of HMTK1. […] Reactions proceeded for 6 minutes at 30°C, and enzyme activity was measured using the phosphocellulose paper assay.
Figure 2 Additional HMTK1 peptide phosphorylation assays. Reactions proceeded for 6 minutes at 30°C, and enzyme activity was measured using the phosphocellulose paper assay. […] (B) Phosphorylation of SH2-binding substrates containing various spacer lengths between the pY residue and the phosphorylatable tyrosine. The peptides are shown schematically, with the phosphorylation site in blue, the SH2-binding ligand (pYEEI) in red, and the number of intervening amino acids in a box. The sequences of the peptides are: […]pYEEIG (spacer = 11), […]pYEEIG (spacer = 7), and […]pYEEIG (spacer = 3); SH2 control substrate, […] (spacer = 11); substrate peptide, […]. Reactions contained 70 µM peptides. Error bars show standard deviation.

Assay [6] has as its system HMTK1. The assay can be described thus: Co-expression of HMTK1 with mammalian receptor tyrosine kinases: binding or phosphorylation. It counts as cell-based, Monosiga brevicollis. Conditions: data not shown.
A further assay deals with MbSrc1. The conditions noted are these: ref [13], [14]; cited from earlier work.
The next assay relates to MbSrc4. Conditions: ref [13], [14]; cited from earlier work.
The target in assay [7] is SH2 binding substrate, spacer = 11 (…pYEEIG).
Assay [8] deals with PTB ligand-containing substrate (…pYATLG).
Assay [9] deals with Phe-containing PTB control substrate (…).

We go through ten substances from publication PMC3082566, “PTB Domain-Directed Substrate Targeting in a Tyrosine Kinase from the Unicellular Choanoflagellate Monosiga brevicollis” (PLoS ONE, 2011).

Sequence of PTB ligand-containing substrate (…pYATLG) (peptide, as listed by the source): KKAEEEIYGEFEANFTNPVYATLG
Sequence of SH2 binding substrate, spacer = 11 (…pYEEIG) (peptide, as listed by the source): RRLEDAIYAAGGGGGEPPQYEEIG

For “LRRApSLG [phospho-Kemptide, immobilized phosphoserine-containing peptide]”, the “binding to wild-type HMTK1 (SYF lysate)” value in assay [1] is “failed to bind”.

With “KKAEEEIYGEFEANFTNPVFATLG [Phe peptide, control peptide in which the pTyr residue was replaced with Phe]”, the “binding to purified HMTK1” value with HMTK1 [2] was “undetectable”. Moreover, the Km with HMTK1 [3] is 450 µM.

As to “RRLEDAIYAAGGGGGEPPQpYEEIG [SH2-binding substrate]”, in the assay on HMTK1 [4], the “phosphorylation relative to control sequence lacking phosphotyrosine” value turned out to be 5 fold and the “phosphorylation relative to shortened peptide containing only the substrate motif” value was 5 fold.

On to “AEEEIYGEFEAKKKG [c-Src peptide, acidophilic Src peptide, reference compound]”, for which the “HMTK1 activity toward peptide (comparison of c-Src and Monosiga-derived peptides)” value (from here on “HMTK1 activity toward peptide”) in the assay with HMTK1 [5] is listed as “roughly equivalent activity”. Further, in the assay on HMTK1 [5] (32P-labeled ATP, 500 µM peptide, 20 mM Tris-HCl pH 7.4, 10 mM MgCl2, 0.2 mM ATP, Fig. 1C), the “phosphorylation of peptide by HMTK1” value is “phosphorylated this peptide efficiently”.

For “ErbB2: mammalian receptor tyrosine kinase”, the “binding or phosphorylation by co-expressed HMTK1” value in the assay on HMTK1 [6] was “failed to bind or phosphorylate”.

For the substance “KKKASGYVMADIA [MbSTAT peptide, from a putative M. brevicollis STAT]”, the “HMTK1 activity toward peptide” value in the assay on HMTK1 [5] is “no significant activity”.

With AEEVYEAIADKKK [RTKB2 peptide 2], in the assay with HMTK1 [5], the “HMTK1 activity toward peptide” value is “highest activity”. Moreover, the “MbSrc1 activity compared with the c-Src peptide” value in the assay with MbSrc1 is “substantially higher activities”. The “MbSrc4 activity compared with the c-Src peptide” value in the assay with MbSrc4 is recorded as “substantially higher activities”.

As to “IGF1R: mammalian receptor tyrosine kinase”, in the assay with HMTK1 [6], the “binding or phosphorylation by co-expressed HMTK1” value is reported as “failed to bind or phosphorylate”.

With SEEVYGAVVDKKK [RTKB2 peptide 1], in the assay on HMTK1 [5], the “HMTK1 activity toward peptide” value was “roughly equivalent activity”. The “MbSrc1 activity compared with the c-Src peptide” value with MbSrc1 is listed as “substantially higher activities”. The “MbSrc4 activity compared with the c-Src peptide” value in the assay with MbSrc4 was “substantially higher activities”.

On to “His-tagged HMTK1 PTB-kinase construct (residues 341-761) (enzyme)”, for which, in assay [7], the other was determined as 5 fold. Also, the Km of peptide phosphorylation by HMTK1 (continuous spectrophotometric assay, 30°C) in [8] is 33 µM; in [9], 450 µM.

What is called Km is the concentration of substrate that gives half-maximal velocity.
